Laboratory results published in patent US20040234509A1, “Replacing liver cells with bone marrow-derived cells for treating disease and expressing therapeutic genes” (priority 2002, published 2004).

System: Kupffer cells
Assay: Kupffer cell replacement in mice: gadolinium chloride followed by GFP bone marrow stem cells
Type: in vivo, C57BL/6 mice
Procedure: Bone marrow derived from C57BL/6-TgN(ACTbEGFP)10sb mice was injected into the tail vein of recipient C57BL/6 mice. Recipient mice were separated into two groups. One group received saline injection the other received gadolinium chloride (20-60 mg/kg i.v.: ICN Biomedicals, Aurora, Ohio) 24 hours before they received the bone marrow cells obtained from C57BL/6-TgN (ACTbEGFP) 10sb mice. The amount of bone marrow cells administered varied between 2×10^6 to 100×10^6 cells/animal. Mice were sacrificed 2 weeks after the stem cells were injected and livers were removed, fixed and prepared for fluorescent microscopy.
C57BL/6 mice were injected with 60 mg/Kg of gadolinium chloride 24 hours before injecting stem cells intravenously.

[1] = 60 mg/Kg gadolinium chloride 24 hours before stem cells i.v., two weeks after injection

## [Cl][Gd]([Cl])[Cl] [gadolinium chloride]
[1]
  GFP labeled Kupffer cells in liver, 10×10^6 stem cells vs 2×10^6 stem cells: many more GFP labeled Kupffer cells
  number of GFP-labeled Kupffer cells, 100×10^6 stem cells vs 10×10^6 stem cells: did not significantly increase the number of GFP-labeled Kupffer cells
C57BL/6 mice, gadolinium chloride 20-60 mg/kg i.v. plus 2×10^6 to 100×10^6 bone marrow cells/animal, 2 weeks
  survival / evidence of toxicity: All mice survived and none showed evidence of any toxicity
Gadolinium chloride 20-60 mg/kg i.v. 24 hours before bone marrow cells from TgN(ACTbEGFP)1Osb mice, livers 2 weeks after stem cells, vs saline control
  GFP-fluorescent Kupffer cells in liver (fluorescent microscopy): contained many GFP-fluorescent Kupffer cells
